Laboratory results reported in paper PMC11249953, “c-KIT inhibitors reduce pathology and improve behavior in the Tg(SwDI) model of Alzheimer’s disease” (Life Science Alliance, 2024).

How the values were obtained:
[1] = target: T1, ULK3 (Homo sapiens, UniProt Q6PHR2); test: KINOMEscan competition binding, ULK3; conditions: 10 µM compound; for remaining binding at 10 µM: lower = stronger binding, read-out: ULK3 %Ctrl @ 10000nM (POC)
T1 construct: DNA label for qPCR read-out (T7 phage fusion or DNA tag); purchased Eurofins DiscoverX Corporation; host or cells: T7 phage in E. coli (BL21-derived) or HEK-293
T1 sequence (Q6PHR2 1-472): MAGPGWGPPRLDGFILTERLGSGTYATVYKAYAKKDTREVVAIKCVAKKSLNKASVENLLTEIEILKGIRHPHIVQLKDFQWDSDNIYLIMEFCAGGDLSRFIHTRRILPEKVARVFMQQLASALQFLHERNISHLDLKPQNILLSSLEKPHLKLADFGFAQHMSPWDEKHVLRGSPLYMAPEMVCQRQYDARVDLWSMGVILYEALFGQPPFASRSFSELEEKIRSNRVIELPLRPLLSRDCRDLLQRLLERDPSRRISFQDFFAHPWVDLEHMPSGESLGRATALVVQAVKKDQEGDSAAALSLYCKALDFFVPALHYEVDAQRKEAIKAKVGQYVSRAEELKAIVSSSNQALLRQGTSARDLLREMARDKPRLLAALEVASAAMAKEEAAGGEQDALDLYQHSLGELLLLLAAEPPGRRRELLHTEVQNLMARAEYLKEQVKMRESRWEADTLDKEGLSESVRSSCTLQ
Experimental: The KINOMEscan screening platform (Eurofins DiscoverX Corporation) was performed using active site-directed competition binding assay to quantitatively measure interactions between BK40143 and BK40197 and more than 450 human kinases and disease relevant mutant variants. […] Screening “hits” are identified by measuring the amount of kinase captured in test (BK40143 and BK40197) versus control samples by using a quantitative and ultra-sensitive qRT-PCR method that detects the associated DNA label. BK40143 and BK40197 were screened at 10 µM concentration, and results for primary screen binding interactions were reported as “% Ctrl” (POC), where lower numbers indicate stronger hits and calculated as follows: [test compound signal−positive control signal/negative control signal−positive control signal]×100
negative control = DMSO (100% Ctrl)
positive control = control compound (0% Ctrl)
Based on screening data from of profiled compounds, a proportional relationship between primary screening results and corresponding compound/target affinities can be described as binding constants (Kd values) for the indicated ranges of POC values with tighter binding (higher affinity) interactions associated with lower POC values and weaker binding (lower affinity) associated with higher POC values. Briefly, kinase-tagged T7 phage strains were grown in parallel in 24-well blocks in an E. coli host derived from the BL21 strain. E. coli were grown to log-phase and infected with T7 phage from a frozen stock (multiplicity of infection = 0.4) and incubated with shaking at 32°C until lysis (90–150 min). The lysates were centrifuged (6,000g) and filtered (0.2 μm) to remove cell debris. The remaining kinases were produced in HEK-293 cells and subsequently tagged with DNA for qRT-PCR detection. Streptavidin-coated magnetic beads were treated with biotinylated small molecule ligands for 30 min at RT to generate affinity resins for kinase assays. The liganded beads were blocked with excess biotin and washed with blocking buffer (1% BSA, 0.05% Tween 20, 1 mM DTT; SeaBlock [Pierce]) to remove unbound ligand and to reduce non-specific phage binding. Binding reactions were assembled by combining kinases, liganded affinity beads, and test compounds in 1x binding buffer (20% 0.17x PBS, 0.05% Tween 20, 6 mM DTT; SeaBlock). Test compounds were prepared as 100x stocks in 100% DMSO and directly diluted into the assay. All reactions were performed in polypropylene 384-well plates in a final volume of 0.02 ml. The assay plates were incubated at RT with shaking for 1 h and the affinity beads were washed with wash buffer (1x PBS, 0.05% Tween 20). […] The kinase concentration in the eluates was measured by qRT-PCR.

[2] = test system: pTau; test: ELISA for pTau (S396) in brain lysates; type: in vivo, mouse; conditions: Tg4510 mice; vs DMSO
Experimental: All samples were analyzed in parallel using the same reagents. A total of 25 μl soluble protein was incubated overnight at 4°C with 25 μl of a mixed bead solution. After washing, samples were incubated with 25 μl detection antibody solution for 1.5 h at RT. Streptavidin–phycoerythrin (25 μl) was added to each well containing the 25 μl of detection antibody solution. Samples were then washed and suspended in 100 μl of sheath fluid. Samples were then run on MAGPIX with Xponent software. The median fluorescent intensity data were analyzed using a five-parameter logistic or spline curve-fitting method for calculating analyte concentrations in samples. Specific pTau ser396 (KHB7031; Invitrogen), aggregated Aβ (KHB3491; Thermo Fisher Scientific), and Aβ42 (KHB3442; Invitrogen) were performed according to manufacturer’s protocol on tissue soluble extracts from brain lysates in 1XSTEN buffer.

| SMILES | inhibition at 10 µM [1] | remaining binding at 10 µM [1] | pTau (396) concentration in brain lysate (ELISA) [2] |
| --- | --- | --- | --- |
| Cc1cccc(-c2cc3nccc(Nc4ccccc4)c3s2)c1 [BK40143] | 90.2% | 9.8% | significantly reduced Aβ and pTau (396) concentrations |
| Cc1cccc(-c2cc3nccc(N4CCOCC4)c3s2)c1 [BK40197] | 93.9% | 6.1% | significantly reduced Aβ and pTau (396) concentrations |
